{
  "source": "patent US12539292B2",
  "about": "“BRM targeting compounds and associated methods of use” (Arvinas Operations, Inc., priority 2018, dated 2026)",
  "target": "T1, BRM (Homo sapiens, UniProt P51531)",
  "T1 construct": "In-Cell Western Screen of BRM Degradation in SW1573 Cells; endogenous in cells; host or cells: SW1573",
  "T1 sequence (P51531 whole entry)": "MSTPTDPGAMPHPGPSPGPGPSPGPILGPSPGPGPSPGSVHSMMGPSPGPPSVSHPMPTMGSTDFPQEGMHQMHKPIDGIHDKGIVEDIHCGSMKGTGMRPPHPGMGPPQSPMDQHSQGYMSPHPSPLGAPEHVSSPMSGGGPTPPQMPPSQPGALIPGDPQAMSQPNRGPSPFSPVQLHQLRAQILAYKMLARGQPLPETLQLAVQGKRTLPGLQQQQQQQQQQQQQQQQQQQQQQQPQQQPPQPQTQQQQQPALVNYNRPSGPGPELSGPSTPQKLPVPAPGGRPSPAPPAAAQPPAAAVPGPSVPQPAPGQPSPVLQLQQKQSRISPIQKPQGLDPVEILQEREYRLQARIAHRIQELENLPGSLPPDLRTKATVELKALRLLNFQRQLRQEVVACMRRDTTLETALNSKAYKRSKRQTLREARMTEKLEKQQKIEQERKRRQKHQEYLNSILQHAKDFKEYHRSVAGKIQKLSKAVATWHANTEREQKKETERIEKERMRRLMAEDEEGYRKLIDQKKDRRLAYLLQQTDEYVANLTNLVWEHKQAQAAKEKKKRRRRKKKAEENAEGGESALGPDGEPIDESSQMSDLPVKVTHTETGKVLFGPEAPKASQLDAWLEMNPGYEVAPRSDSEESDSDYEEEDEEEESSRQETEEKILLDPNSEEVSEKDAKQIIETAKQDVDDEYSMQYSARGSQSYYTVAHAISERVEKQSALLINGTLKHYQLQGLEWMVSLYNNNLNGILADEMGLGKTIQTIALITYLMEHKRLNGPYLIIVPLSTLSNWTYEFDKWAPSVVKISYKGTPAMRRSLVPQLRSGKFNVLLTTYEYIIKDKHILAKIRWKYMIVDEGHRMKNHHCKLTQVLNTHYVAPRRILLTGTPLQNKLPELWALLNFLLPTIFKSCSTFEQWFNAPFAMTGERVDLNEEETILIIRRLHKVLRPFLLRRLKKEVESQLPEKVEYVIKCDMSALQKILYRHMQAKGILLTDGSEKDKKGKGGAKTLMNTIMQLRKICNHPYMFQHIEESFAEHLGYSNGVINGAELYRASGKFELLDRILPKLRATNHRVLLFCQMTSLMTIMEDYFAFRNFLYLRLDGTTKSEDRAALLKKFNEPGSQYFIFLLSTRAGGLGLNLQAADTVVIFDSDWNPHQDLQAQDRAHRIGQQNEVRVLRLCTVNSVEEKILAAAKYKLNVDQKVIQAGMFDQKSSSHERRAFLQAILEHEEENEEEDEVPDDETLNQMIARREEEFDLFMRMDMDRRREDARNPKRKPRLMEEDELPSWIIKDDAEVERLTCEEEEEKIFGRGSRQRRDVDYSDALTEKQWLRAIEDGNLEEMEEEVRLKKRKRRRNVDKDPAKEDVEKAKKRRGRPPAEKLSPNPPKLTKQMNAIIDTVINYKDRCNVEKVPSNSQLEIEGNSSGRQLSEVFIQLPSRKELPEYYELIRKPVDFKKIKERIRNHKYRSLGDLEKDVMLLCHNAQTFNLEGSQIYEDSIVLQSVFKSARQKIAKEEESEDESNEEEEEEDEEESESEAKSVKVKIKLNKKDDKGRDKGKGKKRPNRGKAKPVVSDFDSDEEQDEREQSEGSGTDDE",
  "assay": "In-cell Western screen of BRM degradation in SW1573 cells (Dmax and DC50)",
  "type": "cell-based",
  "how_it_was_run": "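BRM levels were read by LI-COR in-cell Western after two-channel (800/680 nm) immunostaining of fixed, Triton-permeabilised SW1573 cells.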",
  "key": {"[1]": {"conditions": "BRM degradation, SW1573 cells, read-out: DC50"}, "[2]": {"conditions": "BRM degradation, SW1573 cells, when tested at the top concentration of between 0.3 and 10 μM, read-out: Dmax (%) (% degraded)"}, "[3]": {"conditions": "BRM degradation, SW1573 cells, read-out: Dmax (% degraded)"}, "[4]": {"conditions": "BRM degradation, SW1573 cells, Table 2D, read-out: **Dmax (%) (% degraded)"}, "[5]": {"conditions": "BRM degradation, SW1573 cells, Table 2D, read-out: *DC50"}},
  "note": "Read-outs that look alike come from different tables or passages of the source.",
  "data": [
    {"smiles": "COCc1ncsc1-c1ccc([C@H](C)NC(=O)[C@@H]2C[C@@H](O)CN2C(=O)C(c2cc(OCCN3CCN(CCOc4cc(N5C6CCC5CN(c5cc(-c7ccccc7O)nnc5N)C6)ccn4)CC3)no2)C(C)C)cc1", "note": "(stereo partly drawn) [compound 169, (2S,4R)-1-(2-(3-(2-(4-(2-((4-(3-(3-amino-6-(2-hydroxyphenyl)pyridazin-4-yl)-3,8-diazabicyclo[3.2.1]octan-8-yl)pyridin-2-yl)oxy)ethyl)piperazin-1-yl)ethoxy)isoxazol-5-yl)-3-methylbutanoyl)-4-hydroxy-N-((S)-1-(4-(4-(methoxymethyl)thiazol-5-yl)phenyl)ethyl)pyrrolidine-2-carboxamide]", "values": [
      {"measurement": "DC50", "setting": "[1]", "value": "< 2.5", "unit": "nM"},
      {"measurement": "Dmax", "setting": "BRM degradation, SW1573 cells, tested at the top concentration of between 0.3 and 10 μM, read-out: Dmax (%) (% degraded)", "value": "> 75", "unit": "%"}
    ]},
    {"smiles": "Cc1ncsc1-c1ccc([C@H](C)NC(=O)[C@@H]2C[C@@H](O)CN2C(=O)[C@H](c2cc(OCC#Cc3ccc(O[C@H]4C[C@H](Oc5cc(N6C7CCC6CN(c6cc(-c8ccccc8O)nnc6N)C7)ccn5)C4)cn3)no2)C(C)C)cc1", "note": "[compound 69, (2S,4R)-1-((2S)-2-(3-((3-(5-((1r,3S)-3-((4-(3-(3-amino-6-(2-hydroxyphenyl)pyridazin-4-yl)-3,8-diazabicyclo[3.2.1]octan-8-yl)pyridin-2-yl)oxy)cyclobutoxy)pyridin-2-yl)prop-2-yn-1-yl)oxy)isoxazol-5-yl)-3-methylbutanoyl)-4-hydroxy-N-((S)-1-(4-(4-methylthiazol-5-yl)phenyl)ethyl)pyrrolidine-2-carboxamide]", "values": [
      {"measurement": "DC50", "setting": "[1]", "value": "10 to 30", "unit": "nM"},
      {"measurement": "Dmax", "setting": "[2]", "value": "> 75", "unit": "%"}
    ]},
    {"smiles": "Cc1ncsc1-c1ccc([C@H](C)NC(=O)[C@@H]2C[C@@H](O)CN2C(=O)[C@@H](c2cc(OCCC3CCN(C[C@H]4C[C@H](C#CC(C)n5cc(-c6cc(-c7ccccc7O)nnc6N)cn5)C4)CC3)no2)C(C)C)cc1", "note": "(stereo partly drawn) [compound 632, (2S,4R)-1-((2S)-2-(3-(2-(1-(((1r,3S)-3-(3-(4-(3-amino-6-(2-hydroxyphenyl)pyridazin-4-yl)-1H-pyrazol-1-yl)but-1-yn-1-yl)cyclobutyl)methyl)piperidin-4-yl)ethoxy)isoxazol-5-yl)-3-methylbutanoyl)-4-hydroxy-N-((S)-1-(4-(4-methylthiazol-5-yl)phenyl)ethyl)pyrrolidine-2-carboxamide]", "values": [
      {"measurement": "DC50", "setting": "[1]", "value": "< 2.5", "unit": "nM"},
      {"measurement": "Dmax", "setting": "[3]", "value": "> 75", "unit": "%"}
    ]},
    {"smiles": "Cc1ncsc1-c1ccc([C@H](C)NC(=O)[C@@H]2C[C@@H](O)CN2C(=O)[C@@H](c2cc(N3CCC[C@@H](CN4CCC(O[C@H]5C[C@H](Oc6cc(N7C8CCC7CN(c7cc(-c9ccccc9O)nnc7N)C8)ccn6)C5)CC4)C3)no2)C(C)C)cc1", "note": "(single isomer, unassigned) [compound 657]", "values": [
      {"measurement": "DC50", "setting": "[1]", "value": "< 2.5", "unit": "nM"},
      {"measurement": "Dmax", "setting": "[3]", "value": "> 75", "unit": "%"}
    ]},
    {"smiles": "Cc1ncsc1-c1ccc([C@H](C)NC(=O)[C@@H]2C[C@@H](O)CN2C(=O)[C@@H](c2cc(OCCCOc3cc(N4C5CCC4CN(c4cc(-c6ccccc6O)nnc4N)C5)ccn3)no2)C(C)C)cc1", "note": "[compound 614, (2S,4R)-1-((2R)-2-(3-(3-((4-(3-(3-amino-6-(2-hydroxyphenyl)pyridazin-4-yl)-3,8-diazabicyclo[3.2.1]octan-8-yl)pyridin-2-yl)oxy)propoxy)isoxazol-5-y1)-3-methylbutanoyl)-4-hydroxy-N-((S)-1-(4-(4-methylthiazol-5-yl)phenyl)ethyl)pyrrolidine-2-carboxamide]", "values": [
      {"measurement": "Dmax", "setting": "[4]", "value": "> 75", "unit": "%"},
      {"measurement": "DC50", "setting": "[5]", "value": "< 2.5", "unit": "nM"}
    ]},
    {"smiles": "Cc1ncsc1-c1ccc([C@H](C)NC(=O)[C@@H]2C[C@@H](O)CN2C(=O)[C@@H](c2cc(OCCN3CCN(Cc4ccc(C(C)n5cc(-c6cc(-c7ccccc7O)nnc6N)cn5)cc4)CC3)no2)C(C)C)cc1", "note": "(stereo partly drawn) [compound 83, (2S,4R)-1-((2R)-2-(3-(2-(4-(4-(1-(4-(3-amino-6-(2-hydroxyphenyl)pyridazin-4-yl)-1H-pyrazol-1-yl)ethyl)benzyl)piperazin-1-yl)ethoxy)isoxazol-5-yl)-3-methylbutanoyl)-4-hydroxy-N-((S)-1-(4-(4-methylthiazol-5-yl)phenyl)ethyl)pyrrolidine-2-carboxamide]", "values": [
      {"measurement": "DC50", "setting": "[1]", "value": "< 2.5", "unit": "nM"},
      {"measurement": "Dmax", "setting": "[2]", "value": "> 75", "unit": "%"}
    ]},
    {"smiles": "Cc1ncsc1-c1ccc([C@H](C)NC(=O)[C@@H]2C[C@@H](O)CN2C(=O)C(C(C)C)n2cc(OCCN3CCN(CCOc4cc(N5C6CCC5CN(c5cc(-c7ccccc7O)nnc5N)C6)ccn4)CC3)cn2)cc1", "note": "(stereo in doubt) [compound 38, (2S,4R)-1-[(2R)-2-[4-[2-(4-[2-[(4-[3-[3-amino-6-(2-hydroxyphenyl)pyridazin-4-yl]-3,8-diazabicyclo[3.2.1]octan-8-yl]pyridin-2-yl)oxy]ethyl]piperazin-1-yl)ethoxy]-1H-pyrazol-1-yl]-3-methylbutanoyl]-4-hydroxy-N-[(1S)-1-[4-(4-methyl-1,3-thiazol-5-yl)phenyl]ethyl]pyrrolidine-2-carboxamide]", "values": [
      {"measurement": "DC50", "setting": "[1]", "value": "10 to 30", "unit": "nM"},
      {"measurement": "Dmax", "setting": "[2]", "value": "> 75", "unit": "%"}
    ]},
    {"smiles": "Cc1ncsc1-c1ccc([C@H](C)NC(=O)[C@@H]2C[C@@H](O)CN2C(=O)[C@@H](c2cc(OCC[C@H]3CCN(C[C@H]4C[C@H](Oc5cc(N6C7CCC6CN(c6cc(-c8ccccc8O)nnc6N)C7)ccn5)C4)C[C@@H]3C)no2)C(C)C)cc1", "note": "(racemic) [compound 577, (2S,4R)-1-((2R)-2-(3-(2-((3R,4R)-1-(((1r,3R)-3-((4-(3-(3-amino-6-(2-hydroxyphenyl)pyridazin-4-yl)-3,8-diazabicyclo[3.2.1]octan-8-yl)pyridin-2-yl)oxy)cyclobutyl)methyl)-3-methylpiperidin-4-yl)ethoxy)isoxazol-5-yl)-3-methylbutanoyl)-4-hydroxy-N-((S)-1-(4-(4-methylthiazol-5-yl)phenyl)ethyl)pyrrolidine-2-carboxamide]", "values": [
      {"measurement": "Dmax", "setting": "[4]", "value": "> 75", "unit": "%"},
      {"measurement": "DC50", "setting": "[5]", "value": "< 2.5", "unit": "nM"}
    ]},
    {"smiles": "Cc1ncsc1-c1ccc([C@@H](CCO)NC(=O)[C@@H]2C[C@@H](O)CN2C(=O)[C@@H](c2cc(N3CCC(CN4CCC(O[C@H]5C[C@H](Oc6cc(N7C8CCC7CN(c7cc(-c9ccccc9O)nnc7N)C8)ccn6)C5)CC4)CC3)no2)C(C)C)cc1", "note": "[compound 662, (2S,4R)-1-((2R)-2-(3-(4-((4-((1r,3r)-3-((4-(3-(3-amino-6-(2-hydroxyphenyl)pyridazin-4-yl)-3,8-diazabicyclo[3.2.1]octan-8-yl)pyridin-2-yl)oxy)cyclobutoxy)piperidin-1-yl)methyl)piperidin-1-yl)isoxazol-5-yl)-3-methylbutanoyl)-4-hydroxy-N-((R)-3-hydroxy-1-(4-(4-methylthiazol-5-yl)phenyl)propyl)pyrrolidine-2-carboxamide]", "values": [
      {"measurement": "DC50", "setting": "[1]", "value": "2.5 to 10", "unit": "nM"},
      {"measurement": "Dmax", "setting": "[3]", "value": "> 75", "unit": "%"}
    ]},
    {"smiles": "Cc1ncsc1-c1cc(F)c([C@H](C)NC(=O)[C@@H]2C[C@@H](O)CN2C(=O)[C@@H](c2cc(N3CCC(CN4CCC(O[C@H]5C[C@H](Oc6cc(N7C8CCC7CN(c7cc(-c9ccccc9O)nnc7N)C8)ccn6)C5)CC4)CC3)no2)C(C)C)cc1F", "note": "[compound 681, (2S,4R)-1-((2R)-2-(3-(4-((4-((1r,3r)-3-((4-(3-(3-amino-6-(2-hydroxyphenyl)pyridazin-4-yl)-3,8-diazabicyclo[3.2.1]octan-8-yl)pyridin-2-yl)oxy)cyclobutoxy)piperidin-1-yl)methyl)piperidin-1-yl)isoxazol-5-yl)-3-methylbutanoyl)-N-((S)-1-(2,5-difluoro-4-(4-methylthiazol-5-yl)phenyl)ethyl)-4-hydroxypyrrolidine-2-carboxamide]", "values": [
      {"measurement": "DC50", "setting": "[1]", "value": "< 2.5", "unit": "nM"},
      {"measurement": "Dmax", "setting": "[3]", "value": "> 75", "unit": "%"}
    ]},
    {"smiles": "Cc1nccn1-c1ccc([C@H](C)NC(=O)[C@@H]2C[C@@H](O)CN2C(=O)[C@@H](c2cc(N3CCN(CC4CCN(C[C@H]5C[C@H](Oc6cc(N7C8CCC7CN(c7cc(-c9ccccc9O)nnc7N)C8)ccn6)C5)CC4)CC3)no2)C(C)C)cc1", "note": "[compound 437, (2S,4R)-1-((2R)-2-(3-(4-((1-(((1r,3r)-3-((4-(3-(3-amino-6-(2-hydroxyphenyl)pyridazin-4-yl)-3,8-diazabicyclo[3.2.1]octan-8-yl)pyridin-2-yl)oxy)cyclobutyl)methyl)piperidin-4-yl)methyl)piperazin-1-yl)isoxazol-5-yl)-3-methylbutanoyl)-4-hydroxy-N-((S)-1-(4-(2-methyl-1H-imidazol-1-yl)phenyl)ethyl)pyrrolidine-2-carboxamide]", "values": [
      {"measurement": "Dmax", "setting": "SW1573, % degraded, when tested at the top concentration of between 0.3 and 10 μM, read-out: BRM Dmax (%)", "value": "> 75", "unit": "%"},
      {"measurement": "DC50", "setting": "degradation of BRM, read-out: BRM DC50", "value": "< 2.5", "unit": "nM"}
    ]},
    {"smiles": "Cc1ncsc1-c1ccc([C@H](C)NC(=O)[C@@H]2C[C@@H](O)CN2C(=O)[C@@H](c2cc(OCCN3CCC(O[C@H]4C[C@H](Oc5cc(N6C7CCC6CN(c6cc(-c8ccccc8O)nnc6N)C7)ccn5)C4)CC3)no2)C(C)C)nn1", "note": "[compound 504, (2S,4R)-1-((2R)-2-(3-(2-(4-((1r,3R)-3-((4-(3-(3-amino-6-(2-hydroxyphenyl)pyridazin-4-yl)-3,8-diazabicyclo[3.2.1]octan-8-yl)pyridin-2-yl)oxy)cyclobutoxy)piperidin-1-yl)ethoxy)isoxazol-5-yl)-3-methylbutanoyl)-4-hydroxy-N-((S)-1-(6-(4-methylthiazol-5-yl)pyridazin-3-yl)ethyl)pyrrolidine-2-carboxamide]", "values": [
      {"measurement": "DC50", "setting": "BRM degradation, read-out: BRM DC50", "value": "> 30", "unit": "nM"}
    ]},
    {"smiles": "Cc1ncsc1-c1ccc([C@H](C)NC(=O)[C@@H]2C[C@@H](O)CN2C(=O)[C@@H](c2cc(OCCN3C[C@@H]4C[C@H]3CN4CCOc3cc(N4C5CCC4CN(c4cc(-c6ccccc6O)nnc4N)C5)ccn3)no2)C(C)C)cc1", "note": "[compound 135, (2S,4R)-1-((2R)-2-(3-(2-((1S,4S)-5-(2-((4-(3-(3-amino-6-(2-hydroxyphenyl)pyridazin-4-yl)-3,8-diazabicyclo[3.2.1]octan-8-yl)pyridin-2-yl)oxy)ethyl)-2,5-diazabicyclo[2.2.1]heptan-2-yl)ethoxy)isoxazol-5-yl)-3-methylbutanoyl)-4-hydroxy-N-((S)-1-(4-(4-methylthiazol-5-yl)phenyl)ethyl)pyrrolidine-2-carboxamide]", "values": [
      {"measurement": "DC50", "setting": "[1]", "value": "< 2.5", "unit": "nM"},
      {"measurement": "Dmax", "setting": "[2]", "value": "> 75", "unit": "%"}
    ]}
  ]
}
